The values that follow come from patent US20140309192A1, “MODULATORS OF THE G PROTEIN-COUPLED MAS RECEPTOR AND THE TREATMENT OF DISORDERS RELATED THERETO” (ARENA PHARMACEUTICALS, INC., priority 2011, published 2014).

Usually IC50 stands for the concentration needed to halve the response being measured.

One assay deals with T1, rat Mas receptor (Rattus norvegicus, UniProt P12526).
T1 construct: expressed in transfected cells; host or cells: HEK293 (ATCC CRL-1573)
T1 sequence (P12526 1-324): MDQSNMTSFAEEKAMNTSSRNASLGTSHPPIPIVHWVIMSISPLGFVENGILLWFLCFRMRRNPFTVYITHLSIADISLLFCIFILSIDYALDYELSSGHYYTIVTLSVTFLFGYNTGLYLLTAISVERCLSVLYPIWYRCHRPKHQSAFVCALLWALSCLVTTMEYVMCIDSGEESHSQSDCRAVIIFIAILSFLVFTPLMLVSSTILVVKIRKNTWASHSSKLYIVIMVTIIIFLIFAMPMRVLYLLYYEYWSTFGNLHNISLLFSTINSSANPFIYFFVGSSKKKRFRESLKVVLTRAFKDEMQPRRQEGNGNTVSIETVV
As to the kind of experiment: HTRF IP1 assay, HEK293 cells expressing rat Mas receptor. The settings on record: HTRF IP1 assay, rat Mas receptor (Table B.1); read-out: IC50. The format is cell-based. From the text:
(§1) Human and rat Mas receptors were either transiently or stably expressed in HEK293 cells. For transient transfections, human or rat Mas in pHM6 vector were transfected into HEK293 cells using Lipofectamine® (Invitrogen #18324-012). HEK293 cells transfected with empty pHM6 vector were used as a control. For generation of stable cell lines, cDNA expression plasmids encoding human or rat Mas genes and the neo^r gene were transfected into HEK293 cells (ATCC# CRL-1573) using Lipofectamine® (Invitrogen) according to the manufacturer's instructions. Stable receptor expressing pools were then generated over 3 weeks by standard techniques in the presence of 500 μg/mL Geneticin® (Gibco). Individual receptor stable pools were dilution cloned using standard techniques and clones were comparatively evaluated in inositol phosphate accumulation assays. Preferred clones were banked and cultured as needed. HEK293 cells were used as controls. The 384 well IP-One HTRF® Assay (Cisbio #62P1APEJ) was performed as described by the manufacturer's protocol. Cells were plated in at 100,000 cells per well in 15 μL DMEM (Gibco #11960) and incubated in a CO2 incubator at 37° C. for 2 h. Five μL of compounds diluted in 2× stimulation buffer plus 0.4% BSA (Sigma (#A3059) were added to each well and serial diluted IP1 standards (Cisbio #62IP1CDA) were also added to corresponding wells at this step. After the cells were incubated for 4 h in a CO2 incubator at 37° C., d2-labeled IP1 and cryptate-labeled anti-IP1 monoclonal antibody diluted in lysis buffer were added sequentially in 10 μL per well and the assay plates were kept in the dark at room temperature overnight. Ratiometric measurements of fluorescence emission at 665 nm and 620 nm were obtained using a Pherastar fluorometer (BMG Labtech). IP1 levels in each well were calculated according to the standard curves on each plate. IC50 values were obtained by fitting data to a nonlinear curve-fitting program (GraphPad Software, Inc., La Jolla Calif.).
A general note: TR-FRET usually uses a lanthanide donor and a delayed reading to cut background.
In the case of `O=C(Nc1ccc(Cl)cc1N1CCN(CCC(F)(F)F)CC1)c1ccc2c(c1)CN(CCCO)CC2` [Compound 16, N-(4-Chloro-2-(4-(3,3,3-trifluoropropyl)piperazin-1-yl)phenyl)-2-(3-hydroxypropyl)-1,2,3,4-tetrahydroisoquinoline-7-carboxamide], the IC50 amounted to 316 nM.
With `CCOC(=O)CN1Cc2ccc(C(=O)Nc3ccc(Cl)cc3N3CCN(CCC(F)(F)F)CC3)cc2C1` [Compound 27, Ethyl 2-(5-(4-chloro-2-(4-(3,3,3-trifluoropropyl)piperazin-1-yl)phenylcarbamoyl)isoindolin-2-yl)acetate], the IC50 stood at 650 nM.
For `O=C(Nc1ccc(Cl)cc1N1CCN(CCC(F)(F)F)CC1)c1ccc(N2CCCC2)cc1` [Compound 41, N-(4-Chloro-2-(4-(3,3,3-trifluoropropyl)piperazin-1-yl)phenyl)-4-(pyrrolidin-1-yl)benzamide], the IC50 was found to be 582 nM.
For `O=C(Nc1ccc(Cl)cc1N1CCN(CCC(F)(F)F)CC1)c1ccc(CN2CCC(CO)CC2)cc1F` [Compound 54, N-(4-Chloro-2-(4-(3,3,3-trifluoropropyl)piperazin-1-yl)phenyl)-2-fluoro-4-((4-(hydroxymethyl)piperidin-1-yl)methyl)benzamide], the IC50 was 497 nM.
Regarding `C[C@H](NCc1ccc(C(=O)Nc2ccc(Cl)cc2N2CCN(CCC(F)(F)F)CC2)c(F)c1)C(N)=O` [Compound 67, (S)-4-((1-Amino-1-oxopropan-2-ylamino)methyl)-N-(4-chloro-2-(4-(3,3,3-trifluoropropyl)piperazin-1-yl)phenyl)-2-fluorobenzamide], the IC50 was found to be 82 nM.
`O=C(Nc1ccc(Cl)cc1N1CCN(CCC(F)(F)F)CC1)c1ccc(CNC2CCCCNC2=O)cc1F` (centres unmarked) [Compound 79, N-(4-Chloro-2-(4-(3,3,3-trifluoropropyl)piperazin-1-yl)phenyl)-2-fluoro-4-((2-oxoazepan-3-ylamino)methyl)benzamide]: the IC50 amounted to 133 nM.
The same measure, in the same setting: with `N[C@@H]1CCCN(Cc2ccc(C(=O)Nc3ccc(Cl)cc3N3CCN(CCC(F)(F)F)CC3)c(F)c2)C1` [Compound 90, (R)-4-((3-Aminopiperidin-1-yl)methyl)-N-(4-chloro-2-(4-(3,3,3-trifluoropropyl)piperazin-1-yl)phenyl)-2-fluorobenzamide] the figure was 704 nM; with `O=C(Nc1ccc(Cl)cc1N1CCN(CCC(F)(F)F)CC1)c1ccc(CNC(CO)(CO)CO)cc1F` [Compound 103, N-(4-Chloro-2-(4-(3,3,3-trifluoropropyl)piperazin-1-yl)phenyl)-4-((1,3-dihydroxy-2-(hydroxymethyl)propan-2-ylamino)methyl)-2-fluorobenzamide], 535 nM.
On to `CCN1CCCCC(NCc2ccc(C(=O)Nc3ccc(Cl)cc3N3CCN(CCC(F)(F)F)CC3)c(F)c2)C1=O` (centres unmarked) [Compound 117, N-(4-Chloro-2-(4-(3,3,3-trifluoropropyl)piperazin-1-yl)phenyl)-4-((1-ethyl-2-oxoazepan-3-ylamino)methyl)-2-fluorobenzamide], for which the IC50 was 373 nM.
As to `C[C@@H](O)CNCc1ccc(C(=O)Nc2ccc(Cl)cc2N2CCN(CCC(F)(F)F)CC2)c(F)c1` [Compound 130, (R)—N-(4-Chloro-2-(4-(3,3,3-trifluoropropyl)piperazin-1-yl)phenyl)-2-fluoro-4-((2-hydroxypropylamino)methyl)benzamide], the IC50 is 252 nM.
Consider `O=C(Nc1ccc(Cl)cc1N1CCN(CCC(F)(F)F)CC1)c1ccc(CN(CCO)CCO)cc1F` [Compound 144], for which the concentration for half-maximal inhibition (IC50) came to 108 nM.
As for `O=C(Nc1ccc(Cl)cc1N1CCN(CCC(F)(F)F)CC1)c1ccc(CN2CCN3CCCC3C2)cc1F` (centres unmarked) [Compound 157, N-(4-Chloro-2-(4-(3,3,3-trifluoropropyl)piperazin-1-yl)phenyl)-2-fluoro-4-((hexahydropyrrolo[1,2-a]pyrazin-2(1H)-yl)methyl)benzamide], the IC50 was 184 nM.
The same measure, in the same setting: with `O=C(Nc1ccc(Cl)cc1N1CCN(CCC(F)(F)F)CC1)c1ccc(CN2CCS(=O)(=O)CC2)c(F)c1F` [Compound 168, N-(4-Chloro-2-(4-(3,3,3-trifluoropropyl)piperazin-1-yl)phenyl)-2,3-difluoro-4-((1,1-dioxo-thiomorpholin-4-yl)methyl)benzamide] the figure was 27.2 nM; with `O=C(Nc1ccc(Cl)cc1N1CCN(CCC(F)(F)F)CC1)c1ccc(CN(CCO)CCO)c(F)c1F` [Compound 178], 44.8 nM; with `O=C1CN(Cc2ccc(C(=O)Nc3cc(Cl)c(Cl)cc3N3CCN(CCC(F)(F)F)CC3)c(F)c2F)CCN1` [Compound 188, N-(4,5-Dichloro-2-(4-(3,3,3-trifluoropropyl)piperazin-1-yl)phenyl)-2,3-difluoro-4-((3-oxopiperazin-1-yl)methyl)benzamide], 29 nM.
Still for that read-out and setting: with `COC(=O)[C@H](CN)NCc1ccc(C(=O)Nc2ccc(Cl)cc2N2CCN(CCC(F)(F)F)CC2)c(F)c1` [Compound 198, (S)-Methyl 3-amino-2-(4-(4-chloro-2-(4-(3,3,3-trifluoropropyl)piperazin-1-yl)phenylcarbamoyl)-3-fluorobenzylamino)propanoate] the figure was 173 nM; with `CN(CC(=O)O)Cc1ccc(C(=O)Nc2ccc(Cl)cc2N2CCN(CCC(F)(F)F)CC2)c(F)c1F` [Compound 210, 2-((4-(4-Chloro-2-(4-(3,3,3-trifluoropropyl)piperazin-1-yl)phenylcarbamoyl)-2,3-difluorobenzyl)(methyl)amino)acetic acid], 68 nM.
Still for that read-out and setting: the value for `CC(C)(C)OC(=O)NCC[C@H](NCc1ccc(C(=O)Nc2ccc(Cl)cc2N2CCN(CCC(F)(F)F)CC2)c(F)c1F)C(=O)O` [Compound 221, (S)-4-(tert-Butoxycarbonylamino)-2-(4-(4-chloro-2-(4-(3,3,3-trifluoropropyl)piperazin-1-yl)phenylcarbamoyl)-2,3-difluorobenzylamino)butanoic acid] was 157 nM; that for `O=C(O)C[C@H]1CNCCN1Cc1ccc(C(=O)Nc2ccc(Cl)cc2N2CCN(CCC(F)(F)F)CC2)c(F)c1F` [Compound 231, (S)-2-(1-(4-(4-Chloro-2-(4-(3,3,3-trifluoropropyl)piperazin-1-yl)phenylcarbamoyl)-2,3-difluorobenzyl)piperazin-2-yl)acetic acid] was 50 nM.
For `C[C@@H](CO)NC(=O)C1CNCCN1Cc1ccc(C(=O)Nc2ccc(Cl)cc2N2CCN(CCC(F)(F)F)CC2)c(F)c1F` (stereo partly drawn) [Compound 242, 1-(4-(4-Chloro-2-(4-(3,3,3-trifluoropropyl)piperazin-1-yl)phenylcarbamoyl)-2,3-difluorobenzyl)-N—((S)-1-hydroxypropan-2-yl)piperazine-2-carboxamide], the IC50 came out at 315 nM.
For the compound `O=C(Nc1ccc(Cl)cc1N1CCN(CCC(F)(F)F)CC1)c1ccc(CN2CCC[C@@H](CO)C2)c(F)c1F` [Compound 252, (R)—N-(4-Chloro-2-(4-(3,3,3-trifluoropropyl)piperazin-1-yl)phenyl)-2,3-difluoro-4-((3-(hydroxymethyl)piperidin-1-yl)methyl)benzamide], the IC50 is 115 nM.

The target in the next assay is T2, human Mas receptor (Homo sapiens, UniProt P04201).
T2 construct: expressed in transfected cells; host or cells: HEK293 (ATCC CRL-1573)
T2 sequence (P04201 1-325): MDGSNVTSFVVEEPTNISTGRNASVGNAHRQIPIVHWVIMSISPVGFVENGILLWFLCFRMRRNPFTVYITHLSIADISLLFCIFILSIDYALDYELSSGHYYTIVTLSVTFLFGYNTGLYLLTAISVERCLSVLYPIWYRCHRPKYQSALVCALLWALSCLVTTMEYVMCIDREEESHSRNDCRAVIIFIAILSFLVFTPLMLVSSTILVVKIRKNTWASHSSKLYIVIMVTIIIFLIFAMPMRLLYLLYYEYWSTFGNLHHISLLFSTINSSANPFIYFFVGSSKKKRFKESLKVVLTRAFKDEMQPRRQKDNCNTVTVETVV
Put plainly: HTRF IP1 assay, HEK293 cells expressing human Mas receptor. The format is cell-based. The following applies: HTRF IP1 assay, human Mas receptor (Table B.2); read-out: IC50.
From the text: as §1
For the compound `O=C(Nc1ccc(Cl)cc1N1CCN(CCC(F)(F)F)CC1)c1ccc(CN(CCO)CCO)c(F)c1F` [Compound 178], the IC50 came to 34.4 nM.
Consider `O=C(O)C[C@H]1CNCCN1Cc1ccc(C(=O)Nc2ccc(Cl)cc2N2CCN(CCC(F)(F)F)CC2)c(F)c1F` [Compound 231, (S)-2-(1-(4-(4-Chloro-2-(4-(3,3,3-trifluoropropyl)piperazin-1-yl)phenylcarbamoyl)-2,3-difluorobenzyl)piperazin-2-yl)acetic acid], for which the IC50 came to 74.3 nM.
